# Measurements published in patent publication US5948814A, “Genistein for the treatment of cystic fibrosis” (priority 1998, dated 1999).
# Target: ΔF508-CFTR (Homo sapiens, UniProt P13569, DEL508-508)
# Assay: Single-channel kinetics (dwell-time analysis), cell-attached patches
# Format: cell-based
# Parameters: expressed in transfected cells; host or cells: NIH/3T3 cells, stably transfected (NIH/3T3-ΔF508, gift of Dr. Richard Mulligan)
# Experimental: FIGS. 3A and B show recordings of the potentiation of wild-type (wt) and ΔF508-CFTR channel activity by genistein. Channels in cell-attached patches from NIH/3T3-CFTR (FIG. 3A) and NIH/3T3-ΔF508cells (FIG. 3B), were stimulated as indicated with 10 μM forskolin and 50μ genestein.
# Electrophysiology: CFTR channel currents were recorded at room temperature (~22° C.) with a patch-clamp amplifier (EPC-9, Heka Electronic), filtered at 100 Hz with a built-in three-pole Bessel filter, and stored on videotapes. Data were subsequently refiltered at 25 Hz with an eight-pole Bessel filter (Frequency Device, Havervill, Mass.) and captured onto a hard disk at a sampling rate of 50 Hz. […] Patch-clamp electrodes were made from Corning 7052 glass capillaries (Warner Instrument, Hammed, Conn.). The pipette resistance was usually 3-5 M.OMEGA., and the seal resistance was >20 G.OMEGA.. The pipette solution contained (in mM) 140 N-methyl-D-glucamine chloride (NMDG-C1), 2 MgCl2, 5Ca Cl2, and 10 HEPES (pH 7.4 with NMDG). The superfusion solution contained (in mM) 150 […], 2 MgCl2, 1 EGTA, 5 glucose, and 5 HEPES (pH 7.4 with NaOH). In excised inside-out patch experiments, the bath solution contained (in mM) 130 MNDG-Cl, 10 EGTA, 10 HEPES, 20 tetraethylammonium chloride, 8 Tris, and 2 MgCl2 (pH 7.4 with NMDG). Pipette potential was held at 50 mV relative to the bath. Downward deflections represent channel opening.
# Statistics: Mean currents and variance were estimated with Igor (Wavemetrics, Lake Oswego, Oreg.). Parameters for mean current-variance relationships and dose-response curves were obtained from least-square fitting with Sigmaplot (Jandel, San Rafael, Calif.). Po was calculated from patches containing a single channel by dividing the […]. Dwell-time analysis was described previously [Baukrowitz et al., 1994]. Calculated values are presented as means±SE. Comparisons among data were made using the Student's t-test with P<0.05 considered significant.
# To determine how genistein increases Po, the effects of genistein on single-channel kinetics were examined in cell-attached patches using dwell-time analysis. […] Both traces were recorded in the presence of 10 μM forskolin; 50 μM genistein was added prior to the start of the lower trace. […] The mean open times for ΔF508-CFTR were also determined. However, since cell-attached patches containing a single ΔF508-CFTR channel were not observed, a direct assessment of the closed times for ΔF508-CFTR cannot be made. Dwell-time analysis of pooled open times were performed on 14 patches where individual openings of ΔF508-CFTR could be clearly identified.
# Table 1. Values are means±SE.
# [1] = Table 1, 10 μM forskolin + 50 μM genistein
# Chain of ΔF508-CFTR (P13569 with tags, fused parts or gaps DEL508-508): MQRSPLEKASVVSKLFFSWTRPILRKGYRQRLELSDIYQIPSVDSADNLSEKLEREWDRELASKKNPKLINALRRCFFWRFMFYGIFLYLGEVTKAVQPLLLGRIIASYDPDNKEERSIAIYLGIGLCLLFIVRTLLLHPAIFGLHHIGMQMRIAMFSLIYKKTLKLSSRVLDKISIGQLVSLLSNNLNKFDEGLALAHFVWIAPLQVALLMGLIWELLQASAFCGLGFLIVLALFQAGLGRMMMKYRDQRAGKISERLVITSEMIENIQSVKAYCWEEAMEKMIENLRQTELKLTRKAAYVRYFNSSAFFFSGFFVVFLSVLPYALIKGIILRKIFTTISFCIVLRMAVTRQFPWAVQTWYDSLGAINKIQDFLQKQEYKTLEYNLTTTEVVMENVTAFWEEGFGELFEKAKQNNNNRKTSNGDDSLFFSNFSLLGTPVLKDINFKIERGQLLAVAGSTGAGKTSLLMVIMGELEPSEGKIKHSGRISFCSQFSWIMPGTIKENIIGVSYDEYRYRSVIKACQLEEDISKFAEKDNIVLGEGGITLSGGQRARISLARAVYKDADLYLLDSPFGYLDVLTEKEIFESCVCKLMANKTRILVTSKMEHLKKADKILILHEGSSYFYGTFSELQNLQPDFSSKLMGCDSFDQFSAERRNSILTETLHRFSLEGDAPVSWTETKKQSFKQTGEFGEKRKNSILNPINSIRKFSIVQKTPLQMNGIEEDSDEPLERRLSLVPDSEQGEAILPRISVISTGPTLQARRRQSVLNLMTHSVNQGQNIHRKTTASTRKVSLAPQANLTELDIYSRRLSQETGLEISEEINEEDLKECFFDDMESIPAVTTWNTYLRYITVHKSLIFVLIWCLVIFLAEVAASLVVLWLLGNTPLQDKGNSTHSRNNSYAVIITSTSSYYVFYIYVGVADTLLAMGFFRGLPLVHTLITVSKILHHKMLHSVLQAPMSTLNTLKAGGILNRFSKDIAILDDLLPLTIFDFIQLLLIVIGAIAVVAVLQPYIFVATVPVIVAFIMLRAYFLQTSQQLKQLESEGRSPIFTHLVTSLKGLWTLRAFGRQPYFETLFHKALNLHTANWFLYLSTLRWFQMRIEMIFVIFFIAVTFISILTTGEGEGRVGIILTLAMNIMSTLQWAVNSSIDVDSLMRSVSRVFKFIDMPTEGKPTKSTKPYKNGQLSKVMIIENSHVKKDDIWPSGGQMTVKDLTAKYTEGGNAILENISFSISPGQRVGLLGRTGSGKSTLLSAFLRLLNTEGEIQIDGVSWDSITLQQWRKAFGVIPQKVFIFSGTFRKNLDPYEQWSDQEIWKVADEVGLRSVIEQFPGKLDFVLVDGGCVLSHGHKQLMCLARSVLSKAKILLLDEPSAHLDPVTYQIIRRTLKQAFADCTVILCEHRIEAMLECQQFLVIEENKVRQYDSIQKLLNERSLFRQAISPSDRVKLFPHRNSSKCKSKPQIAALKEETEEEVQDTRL
Compound,increase of TO2 of forskolin-activated ΔF508-CFTR current by genistein (10 μM forskolin),TO1 (mean open time) [1],TO2 (long mean open time) [1],"average long closing time (10 μM forskolin alone, at least 5 channels in patch)","TO2 (so in the source), estimated (10 μM forskolin, from observed closed time and minimal number of channels)","TO1 (mean open time) (Table 1, 10 μM forskolin)","TO2 (long mean open time) (Table 1, 10 μM forskolin)","TC2 (long mean closed time), estimation (Table 1, 10 μM forskolin, estimated from observed closed time and minimum number of channels)"
"O=c1c(-c2ccc(O)cc2)coc2cc(O)cc(O)c12 [Genistein, 4',5,7-trihydroxyisoflavone]",two-to threefold,0.31 ± 0.17,2.63 ± 0.37,–,–,–,–,–
C=C[C@@]1(C)CC(=O)[C@]2(O)[C@@]3(C)[C@@H](O)CCC(C)(C)[C@@H]3[C@H](O)[C@H](OC(C)=O)[C@@]2(C)O1 [forskolin],–,–,–,6.1 s,about 30 seconds,0.30 ± 0.11,0.92 ± 0.12,> 30
